Experimental data taken from PubChem BioAssay AID1794821.
pIC50: −log10 of the molar value.

Target: Sodium/hydrogen exchanger 9B2 (Homo sapiens) (UniProt Q86UD5)
Assay: SLC9B2 inhibition via intracellular pH change, dose response, cell-based, pHluorin biosensor fluorescence, HEK-293, SLC9B2 overexpression (AID 1794821)
Details: HEK-293 SLC9B2 OE

Sodium/hydrogen exchanger 9B2 (Homo sapiens), sequence (Q86UD5 whole entry, looked up): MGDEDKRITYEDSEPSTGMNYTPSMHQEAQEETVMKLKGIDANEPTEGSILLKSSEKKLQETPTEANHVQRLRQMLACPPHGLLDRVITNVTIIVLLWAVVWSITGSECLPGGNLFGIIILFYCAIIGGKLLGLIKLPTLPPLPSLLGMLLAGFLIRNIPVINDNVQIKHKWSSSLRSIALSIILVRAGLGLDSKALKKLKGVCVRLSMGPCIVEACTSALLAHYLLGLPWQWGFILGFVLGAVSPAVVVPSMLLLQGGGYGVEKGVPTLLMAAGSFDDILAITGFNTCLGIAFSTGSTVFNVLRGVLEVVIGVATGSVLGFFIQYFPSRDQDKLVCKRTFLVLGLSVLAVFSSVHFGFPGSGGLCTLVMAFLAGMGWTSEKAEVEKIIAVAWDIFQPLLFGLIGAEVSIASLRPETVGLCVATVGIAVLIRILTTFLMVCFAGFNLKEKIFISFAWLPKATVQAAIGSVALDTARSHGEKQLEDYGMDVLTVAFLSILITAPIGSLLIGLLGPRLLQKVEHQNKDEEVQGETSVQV

Question: With `O=C(CCc1ccc(O)cc1)c1c(O)cc(O)cc1O` as the compound, how does the pIC50 read?
Answer: Its pIC50 is 4.05.
